# Like-named read-outs stand apart in the source and are kept apart here.
# Key:
# [1] = acute toxicity tests with mice; settings: mouse, in vivo
# Excerpt: The toxicity of compound (I) in animals is very low.
# [2] = growth of pigs, 5-month continuous dietary administration, Test Examples 10-11; format: in vivo, Landrace pigs; settings: for Body weight at end / Body weight at feed exchange / Body weight gain for starter feed period / Body weight gain for whole period / Feed conversion for starter feed period / Feed conversion for whole period / Feed intake for starter feed period / Feed intake for whole period: mean per head
# Protocol: Effects of compound (I) on the growth of pigs under the conditions in which swine dysentery was absent were examined. Thus, 40 one-month-old Landrace pigs (5 litters) were used in groups each consisting of 8 (4 males and 4 females). Lankacidin C was added in concentrations of 0 (control), 1, 2.5, 5 and 10 ppm to antibacterial agent-free starter feed for the period from the start of the test through the age of 3 months and to the feed for testing pigs for performance of meat production (also free of antibacterial agents) for the period from the age of 4 months to the age of 6 months (end). Thus, in each group, dietary lankacidin C was administered continuously for 5 months.
# The data are each the mean value per head. Different alphabetic letters o
# Fourty-eight 35-day-old Landrace pigs (6 litters) were used in 6 groups each consisting of 8 (4 males and 4 females). Lankacidin A was added in concentrations of 0 (control), 1, 2.5, 5, 10 and 20 ppm to antibacterial agent-free starter feed for the period from the start of the test through the age of 3 months and to the feed for testing pigs for performance of meat production (also free of antibacterial agents) for the period from the age of 4 months to the age of 6 months (end).
# [3] = system: Treponema hyodysenteriae 78/A strain; experiment: efficacy against swine dysentery under experimental infection conditions in pigs (drug in feed), Test Examples 5-7; format: in vivo, Landrace pigs
# Summary of the method: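 Landrace pigs, 4 per group, fed starter feed with drug admixed (100 ppm or lower; 10 ppm for lankacidin A and C 14-propionate) ad libitum; infected at 7 weeks after 24 h fast by 100 ml intragastric inoculum of two-fold diluted colonic contents/mucosa from 78/A-infected pigs. Fed 21 days post-infection; per-head means to autopsy.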
# [4] = system: Treponema hyodysenteriae 78/A strain; experiment: therapeutic administration in pigs showing clinical signs of swine dysentery, Test Examples 8-9; format: in vivo; settings: for Condition of feces: Table 9, individual pig
# Protocol: This test was conducted under the conditions of so-called therapeutic administration. […] The method of infection was the same as in Test Example 5. […] Simultaneously with showing of the signs, the pigs were provided with a feed containing 50 ppm of lankacidin C. […] After 2 days, the viable count for the pathogen in feces was below the detection limit (10^2 CFU/g).
# The condition of feces was rated at one of the following four classes:
# .circle. normal; loose; diarrheal; .circleincircle. mucous and bloody
# count is below the detection limit (10^2 CFU/g).
# The symbol * indicates those days on which the feed containing 50 ppm of
# lankacidin C was given.
# Lankacidins were tested for therapeutic effects in swine dysentery under therapeutic conditions in the same manner as in Test Example 8. The effects were judged based on the condition of feces.
# The condition of feces was rated at one of the following four classes;
# The symbol * indicates the days on which the feed containing 50 ppm of th
# [5] = 10 ppm in feed, 21-day test period
# [6] = 10 ppm in feed, 21 day period, mean per head
smiles,measurement,setting,value
"CC(=O)OC1C=CC(C)=CCC(O)C=CC(C)=CC(NC(=O)C(C)=O)C2(C)C(=O)OC(C1)C(C)C2=O (centres unmarked) [Lankacidin A, lankacidin A]",LD50,"[1]; ip, intraperitoneal, read-out: intraperitoneal LD50",8000 to 10000 mg/kg
same,LD50,"[1]; oral, read-out: oral LD50",> 10000 mg/kg
same,Body weight at end,[2]; 1 ppm in feed,111.6 kg
same,Body weight at feed exchange,[2]; 1 ppm in feed,34.0 kg
same,Body weight gain for starter feed period,[2]; 1 ppm in feed,24.8 kg
same,Body weight gain for whole period,[2]; 1 ppm in feed,102.4 kg
same,Feed conversion for starter feed period,[2]; 1 ppm in feed,1.94
same,Feed conversion for whole period,[2]; 1 ppm in feed,2.88
same,Feed intake for starter feed period,[2]; 1 ppm in feed,48.1 kg
same,Feed intake for whole period,[2]; 1 ppm in feed,294.9 kg
same,Body weight at end,[2]; 2.5 ppm in feed,113.5 kg
same,Body weight at feed exchange,[2]; 2.5 ppm in feed,34.6 kg
same,Body weight gain for starter feed period,[2]; 2.5 ppm in feed,25.4 kg
same,Body weight gain for whole period,[2]; 2.5 ppm in feed,104.4 kg
same,Feed conversion for starter feed period,[2]; 2.5 ppm in feed,1.87
same,Feed conversion for whole period,[2]; 2.5 ppm in feed,2.83
same,Feed intake for starter feed period,[2]; 2.5 ppm in feed,47.6 kg
same,Feed intake for whole period,[2]; 2.5 ppm in feed,295.3 kg
same,Body weight at end,[2]; 5 ppm in feed,118.3 kg
same,Body weight at feed exchange,[2]; 5 ppm in feed,36.1 kg
same,Body weight gain for starter feed period,[2]; 5 ppm in feed,26.9 kg
same,Body weight gain for whole period,[2]; 5 ppm in feed,109.1 kg
same,Feed conversion for starter feed period,[2]; 5 ppm in feed,1.77
same,Feed conversion for whole period,[2]; 5 ppm in feed,2.79
same,Feed intake for starter feed period,[2]; 5 ppm in feed,47.6 kg
same,Feed intake for whole period,[2]; 5 ppm in feed,304.3 kg
same,Body weight at end,[2]; 10 ppm in feed,120.5 kg
same,Body weight at feed exchange,[2]; 10 ppm in feed,36.7 kg
same,Body weight gain for starter feed period,[2]; 10 ppm in feed,27.6 kg
same,Body weight gain for whole period,[2]; 10 ppm in feed,111.4 kg
same,Feed conversion for starter feed period,[2]; 10 ppm in feed,1.73
same,Feed conversion for whole period,[2]; 10 ppm in feed,2.74
same,Feed intake for starter feed period,[2]; 10 ppm in feed,47.7 kg
same,Feed intake for whole period,[2]; 10 ppm in feed,305.2 kg
same,Body weight at end,[2]; 20 ppm in feed,123.4 kg
same,Body weight at feed exchange,[2]; 20 ppm in feed,37.4 kg
same,Body weight gain for starter feed period,[2]; 20 ppm in feed,28.8 kg
same,Body weight gain for whole period,[2]; 20 ppm in feed,114.2 kg
same,Feed conversion for starter feed period,[2]; 20 ppm in feed,1.71
same,Feed conversion for whole period,[2]; 20 ppm in feed,2.72
same,Feed intake for starter feed period,[2]; 20 ppm in feed,48.2 kg
same,Feed intake for whole period,[2]; 20 ppm in feed,310.6 kg
same,growth and feed efficiency (in words),"[2]; dietary, 5 months","Swine growth was promoted proportionally to the increase of level of addition of lankacidin A, and the feed efficiency was improved accordingly"
same,"Number of pigs from which the pathogen was detected, in colonic mucosa",[3]; 10 ppm in feed,0
same,"Number of pigs from which the pathogen was detected, in feces",[3]; 10 ppm in feed,0
same,Number of pigs showing colonic lesions,[3]; 10 ppm in feed,0
same,Number of days on which diarrhea was observed,[3]; [5],0 days
same,Number of days on which mucous bloody stool was observed,[3]; [5],0 days
same,Number of pigs showing signs of infection/number of pigs used,[3]; [5],0/4
same,Body weight gain,[3]; [6],567 grams/day
same,Feed conversion,[3]; [6],1.76
same,Feed intake,[3]; [6],21.0 kg
same,Body weight at the time of completion of test,"[3]; 10 ppm in feed, mean per head",22.9 kg
same,effect against swine dysentery (in words),"[3]; pig, in vivo",distinctly effective against swine dysentery
same,therapeutic effect in swine dysentery (in words),[4]; 50 ppm in feed,therapeutically effective
same,Condition of feces,"[4]; 50 ppm in feed days 0-6, day 7",.circle.
same,Condition of feces,"[4]; 50 ppm in feed days 0-6, day 8",.circle.
same,Condition of feces,"[4]; 50 ppm in feed days 0-6, day 9",.circle.
same,Condition of feces,"[4]; 50 ppm in feed days 0-6, day 10",.circle.
same,Condition of feces,"[4]; 50 ppm in feed days 0-6, day 11",.circle.
same,Condition of feces,"[4]; 50 ppm in feed days 0-6, day 12",.circle.
same,Condition of feces,"[4]; 50 ppm in feed days 0-6, day 13",.circle.
same,Condition of feces,"[4]; 50 ppm in feed days 0-6, day 14",.circle.
same,Condition of feces,"[4]; 50 ppm in feed days 0-6, day 15",.circle.
same,Condition of feces,"[4]; 50 ppm in feed days 0-6, day 16",.circle.
same,Condition of feces,"[4]; 50 ppm in feed days 0-6, day 17",.circle.
same,Condition of feces,"[4]; 50 ppm in feed days 0-6, day 18",.circle.
same,Condition of feces,"[4]; 50 ppm in feed days 0-6, day 19",.circle.
same,Condition of feces,"[4]; 50 ppm in feed days 0-6, day 20",.circle.
same,Condition of feces,"[4]; 50 ppm in feed days 0-6, day 21",.circle.
same,Condition of feces,"[4]; 50 ppm in feed, day 0 after manifestation of signs",.circleincircle.
same,Condition of feces,"[4]; 50 ppm in feed, day 1",.circle.
same,Condition of feces,"[4]; 50 ppm in feed, day 2",.circle.
same,Condition of feces,"[4]; 50 ppm in feed, day 3",.circle.
same,Condition of feces,"[4]; 50 ppm in feed, day 4",.circle.
same,Condition of feces,"[4]; 50 ppm in feed, day 5",.circle.
same,Condition of feces,"[4]; 50 ppm in feed, day 6",.circle.

# From US4425356A, “Lankacidin derivatives used in swine husbandry” (Takeda Chemical Industries, Ltd., priority 1980, dated 1984)
